Series [1] has as its system MDCK cells. The series is described as follows: MTT cytotoxicity assay on MDCK cells. The class given is cell-based, canine. The settings on record: Canis lupus familiaris, 100 μmol/L, 24 h, mean ± SD of three replicates, read-out: Growth Inhibition Rate (%). The method, then:
First, we used the MTT method to perform cytotoxicity of barbatic acid derivatives (1, 6a–6p′) on MDCK cells at the concentration of 100 μmol/L, and the results are shown in Table 1.
The MTT assay was used to evaluate the cytotoxicity of the target compounds on DMCK cells. Logarithmic-growth-phase DMCK cells were seeded in a 96-well plate (10^4 cells/well) and incubated in a cell culture incubator for 24 h. The culture medium was then removed and replaced with a drug-containing medium for the treatment groups (1, 6a–6p′, 100 μmol/L), normal saline for the control group, or hydrochlorothiazide (100 μmol/L) for the positive control group. Each well was treated with 100 µL of the respective solution and incubated for an additional 24 h. The culture medium was then removed and replaced with a DMEM solution containing 20 µL of MTT (5 mg/mL). After incubating for 4 h, the liquid in each well was removed and replaced with 150 µL of DMSO, which was shaken for 10 min to ensure thorough mixing. The absorbance at 490 nm was measured to determine the optical density (OD) of each well. Cell growth inhibition rate (%) = (ODBlank − ODExperimental)/ODBlank × 100%.
(In general: Tetrazolium dyes change colour on reduction, which living cells bring about.)

Series [2] has as its system Na^+ transport, MDCK cells. The series is described as follows: In vitro diuretic activity: Na^+ transport inhibition, Transwell chamber seeded with MDCK cells. The class given is cell-based, canine. Particulars: for inhibition at 100 µM: Canis lupus familiaris, MDCK, read-out: Transport Inhibition Rate (%) Na^+; for inhibition at 100 µM / Transport Inhibition Rate (%) Na^+: 100 μmol/L, MDCK cells in Transwell, mean ± SD of three replicates, negative = promotion. An excerpt: (§1) The traditional methods for screening diuretic drugs are mostly in vivo experiments with mice, which have a long experimental cycle and are not suitable for screening massive compounds. As we know, the generation and excretion of urine involve two processes: glomerular filtration and tubular reabsorption. Reabsorption refers to the process in which the renal tubular epithelial cells transport water and certain solutes from the tubular fluid (urine) partially or entirely back into the bloodstream. Then, 99% of the water in the original urine filtered by the glomerulus is reabsorbed, and the transport of Na^+ and Cl^− plays an important role in this process. Thiazide and furosemide diuretics exert their diuretic effects by inhibiting the transport of Na^+ and Cl^−, which affects the tubular reabsorption of the original urine. Based on this principle, we established a new type of cell screening model for diuretic active drugs. Madin–Darby canine kidney (MDCK) cells were inoculated into a Transwell chamber to simulate the renal tubules. This cell model could transport and absorb external NaCl, simulating the reabsorption phenomenon. […] The effectiveness of this model was confirmed by the validation of hydrochlorothiazide, which is a commercially available diuretic drug and could inhibit the transport of Na^+ and Cl^− in renal tubules.
(§2) Generally, the transport of Na^+ and Cl^− plays an important role in glomerular filtration and tubular reabsorption. […] For example, inhibition rates of transport of 6a and 6c were over 30%, and had better inhibitory ability than barbatic acid. […] When ethyl, propyl, and benzyl were substituted on R^1, the introduction of any group could not enhance the inhibitory activity of barbatic acid, such as 6h–u and 6j′–6p′.
(§3) Log-phase MDCK cells were seeded in the upper chambers of Transwell plates (4 × 10^4 cells/well), and 800 µL of complete culture medium was added to the lower chambers. After 24 h of incubation at 37 °C, the electrical resistance of the upper chamber cells was measured one by one (R = (Rcell − Rblank) × 0.04π). When the electrical resistance of the upper chamber cells reached ≥300 Ω cm^2, the upper chamber medium was removed and replaced with the drug solution. The blank group (given normal saline), the experimental group (1, 6a–6p′, 100 μmol/L), and the hydrochlorothiazide group (100 μmol/L) were set, and each well was treated with 100 µL of the corresponding solution. The cells were then further incubated for 24 h. After that, the upper and lower chamber fluids were removed, and 200 µL of NaCl solution (15 mg/mL) was added to the upper chamber, while 800 µL of DMEM was added to the lower chamber for continued incubation. At 0.5, 1, 2, and 3 h, 50 µL of the lower chamber fluid was taken and the OD values were measured using Na^+ and Cl^− detection kits. The transport inhibition rate (%) was calculated as follows: transport inhibition rate (%) = (ODblank − ODexperimental)/ODblank × 100%.

The test system of series [3] is Cl^− transport, MDCK cells. Description: In vitro diuretic activity: Cl^− transport inhibition, Transwell chamber seeded with MDCK cells. The settings on record: Canis lupus familiaris; 100 μmol/L, MDCK cells in Transwell; mean ± SD of three replicates; negative = promotion; read-out: Transport Inhibition Rate (%) Cl^−. The class given is cell-based, canine.
Source text: as §1, §2, §3

The test system of series [4] is Ca^2+ transport, MDCK cells. Description: In vitro litholytic activity: Ca^2+ transport inhibition, Transwell chamber with MDCK cells. Particulars: Canis lupus familiaris, 100 μmol/L, mean ± SD of three replicates, read-out: Transport Inhibition Rate (%) Ca^2+. Format: cell-based, canine. On the procedure: (§4) On the other hand, all compounds had little inhibitory effect on Ca^2+ transport. The structure–activity relationships (SARs) were also observed. […] On the other hand, the introduction of the benzyl group to the R^1 or R^2 of barbatic acid could not lead to more promising compounds, such as 6a, 6n, 6u, 6b′, and 6i′–p′.
(§5) Logarithmic-phase DMCK cells were inoculated in the upper chamber of a Transwell plate (4 × 10^4 cells/well). Then, 800 µL of complete culture medium was added to the lower chamber, and the cells were incubated for 24 h until they adhered to the wall. The resistance value of the upper chamber cells was measured one by one at 37 °C (R = (Rcell − Rblank) × 0.04π). When the resistance value of the upper chamber cells was ≥300 Ω cm^2, the upper chamber liquid was discarded for drug administration. A control group (given physiological saline) and an experimental group (1, 6a–6p′, 100 μmol/L) were set up, and 100 µL of each drug was administered per well, followed by continued incubation for 24 h. Then, the upper and lower chamber liquids were discarded, and 200 µL of CaC2O4 (30 mmol/L) solution was added to the upper chamber, and 800 µL of PBS solution was added to the lower chamber for continued incubation. At 0.5, 1, 2, and 3 h, 50 µL of the lower chamber liquid was taken and then tested using the Ca^2+ and C2O4^2− detection kits and the following detection methods. The transport inhibition rate (%) = (ODblank − ODexperimental)/ODblank × 100%.

The subject of series [5] is C2O4^2− transport, MDCK cells. Description: In vitro litholytic activity: C2O4^2− transport inhibition, Transwell chamber with MDCK cells. Format: cell-based, canine. The settings on record: Canis lupus familiaris; 100 μmol/L, MDCK cells in Transwell; mean ± SD of three replicates; read-out: Transport Inhibition Rate (%) C2O4^2−. On the procedure: as §4, §5

Each structure is given as a SMILES string. Where “and” joins values, the source holds several entries; their conditions need not be identical. Equal values may be shown once.

What is called inhibition is the drop in the measured response relative to a control, in per cent. Broadly, the melting point is the temperature of the solid-liquid transition.

In the case of `Cc1cc(OCc2ccccc2)c(C)c(O)c1C(=O)Oc1cc(C)c(C(=O)OC(C)C)c(O)c1C` [6m′, 3-hydroxy-4-(isopropoxycarbonyl)-2,5-dimethylphenyl 4-(benzyloxy)-2-hydroxy-3,6-dimethylbenzoate], the melting point was 135 to 138 °C. Besides, the inhibition at 100 µM in series [1] is under 0%. The inhibition at 100 µM in series [2] is -0.36 ± 0.4%. For the same molecule, the inhibition at 100 µM in series [3] was -4.93 ± 2.95%. Also, in series [4], the inhibition at 100 µM was -2.06 ± 0.09%. Further, in series [5], the inhibition at 100 µM stood at 2.28 ± 1.34%.
Turning to `C=CCOC(=O)c1c(C)cc(OC(=O)c2c(C)cc(OCc3ccccc3)c(C)c2O)c(C)c1O` [6n′, allyl 4-(4-(benzyloxy)-2-hydroxy-3,6-dimethylbenzoyloxy)-2-hydroxy-3,6-dimethylbenzoate], the melting point fell in the range of 127 to 130 °C. In addition, the inhibition at 100 µM in series [1] is under 0%. In series [2], the inhibition at 100 µM was -1.85 ± 0.8%. Further, in series [3], the inhibition at 100 µM was -13 ± 0.15%. Further, the inhibition at 100 µM in series [4] was determined as 0.1 ± 0.3%. Also, the inhibition at 100 µM in series [5] is -29.4 ± 3.89%.
`Cc1cc(OCc2ccccc2)c(C)c(O)c1C(=O)Oc1cc(C)c(C(=O)OCC#N)c(O)c1C` [6o′, 4-((cyanomethoxy)carbonyl)-3-hydroxy-2,5-dimethylphenyl 4-(benzyloxy)-2-hydroxy-3,6-dimethylbenzoate] displayed a melting point of 151 to 155 °C. The inhibition at 100 µM in series [1] is under 0%. The inhibition at 100 µM in series [2] was -3.28 ± 0.75%. The inhibition at 100 µM in series [3] is -24 ± 1.5%. In series [4], the inhibition at 100 µM was -1.82 ± 0.23%. The inhibition at 100 µM in series [5] is 2.03 ± 1.07%.
As for `Cc1cc(OCc2ccccc2)c(C)c(O)c1C(=O)Oc1cc(C)c(C(=O)OCc2ccccc2)c(O)c1C` [6p′, benzyl 4-(4-(benzyloxy)-2-hydroxy-3,6-dimethylbenzoyloxy)-2-hydroxy-3,6-dimethylbenzoate], the melting point was 153 to 157 °C. Further, the inhibition at 100 µM in series [1] was under 0%. Also, the inhibition at 100 µM in series [2] came out at 16.3 ± 0.1%. In addition, the inhibition at 100 µM in series [3] is -5.43 ± 0.85%. Moreover, the inhibition at 100 µM in series [4] was -3.34 ± 0.26%. In addition, in series [5], the inhibition at 100 µM is 7.16 ± 1.56%.
Consider `COc1cc(C)c(C(=O)Oc2cc(C)c(C(=O)OCc3ccccc3)c(O)c2C)c(O)c1C` [Compound 6a, Benzyl 2-hydroxy-4-((2-hydroxy-4-methoxy-3,6-dimethylbenzoyl)oxy)-3,6-dimethylbenzoate], for which the melting point is 113 to 115 °C. Further, the inhibition at 100 µM in series [1] is under 0%. In series [2], the “Transport Inhibition Rate (%) Na^+” value was found to be 33.51 ± 5.95% and the inhibition at 100 µM was over 30%. Also, the inhibition at 100 µM in series [3] was determined as 8.76 ± 0.25%. Further, the inhibition at 100 µM in series [4] was -7.98 ± 0.17%. Also, the inhibition at 100 µM in series [5] is -16.6 ± 0.37%.
In turn, `COC(=O)c1c(C)cc(OC(=O)c2c(C)cc(OC)c(C)c2O)c(C)c1O` [Compound 6b, 3-hydroxy-4-(methoxycarbonyl)-2,5-dimethylphenyl 2-hydroxy-4-methoxy-3,6-dimethylbenzoate] had a melting point of 177 to 180 °C. In series [1], the inhibition at 100 µM was under 0%. The “Transport Inhibition Rate (%) Na^+” value in series [2] is “less than 10% and −9.31 ± 7.15%”. For the same molecule, the inhibition at 100 µM in series [3] was 5.71%. For the same molecule, the inhibition at 100 µM in series [4] was -5.14 ± 0.31%. The inhibition at 100 µM in series [5] was -4.25 ± 1.08%.
On to `CCOC(=O)c1c(C)cc(OC(=O)c2c(C)cc(OC)c(C)c2O)c(C)c1O` [Compound 6c, 4-(ethoxycarbonyl)-3-hydroxy-2,5-dimethylphenyl 2-hydroxy-4-methoxy-3,6-dimethylbenzoate], for which the melting point lay in the range of 175 to 178 °C. Also, in series [1], the inhibition at 100 µM is under 0%. Also, in series [2], the “Transport Inhibition Rate (%) Na^+” value is on record as 47.18 ± 0.80% and the inhibition at 100 µM is over 30%. Moreover, the “Na^+ transport inhibition rate at 1, 2, and 3 h” value in series [2] (evaluated at 1, 2, and 3 h (Figure 3)) is on record as “above 20%”. Besides, the inhibition at 100 µM in series [3] was -7.56 ± 0.35%. Also, the inhibition at 100 µM in series [4] was -2.3 ± 0.34%. The inhibition at 100 µM in series [5] was 1.01 ± 2.03%.
`CCCOC(=O)c1c(C)cc(OC(=O)c2c(C)cc(OC)c(C)c2O)c(C)c1O` [Compound 6d, 3-hydroxy-2,5-dimethyl-4-(propoxycarbonyl)phenyl 2-hydroxy-4-methoxy-3,6-dimethylbenzoate] returned a melting point of 146 to 149 °C. The inhibition at 100 µM in series [1] was 3.04 ± 0.3%. Further, the inhibition at 100 µM in series [2] was 8.04 ± 0.4%. Moreover, the inhibition at 100 µM in series [3] is -9.21 ± 0.45%. Also, the inhibition at 100 µM in series [4] is -9.93 ± 0.19%. Besides, in series [5], the inhibition at 100 µM was -6.69 ± 8.67%.
Regarding `COc1cc(C)c(C(=O)Oc2cc(C)c(C(=O)OC(C)C)c(O)c2C)c(O)c1C` [Compound 6e, 3-hydroxy-4-(isopropoxycarbonyl)-2,5-dimethylphenyl 2-hydroxy-4-methoxy-3,6-dimethylbenzoate], the melting point was in the range of 135 to 138 °C. In series [1], the inhibition at 100 µM is under 0%. Further, in series [2], the inhibition at 100 µM is -0.88 ± 4.35%. For the same molecule, the inhibition at 100 µM in series [3] is -3.13 ± 0.65%. Further, in series [4], the inhibition at 100 µM was -3.66 ± 0.27%. Further, the inhibition at 100 µM in series [5] is -2.05 ± 3%.
Regarding `C=CCOC(=O)c1c(C)cc(OC(=O)c2c(C)cc(OC)c(C)c2O)c(C)c1O` [Compound 6f, allyl 2-hydroxy-4-(2-hydroxy-4-methoxy-3,6-dimethylbenzoyloxy)-3,6-dimethylbenzoate], the melting point was in the range of 155 to 157 °C. Also, in series [1], the inhibition at 100 µM was under 0%. In addition, in series [2], the inhibition at 100 µM is -0.5 ± 0.1%. Moreover, in series [3], the inhibition at 100 µM is -0.61 ± 0.6%. For the same molecule, in series [4], the inhibition at 100 µM was -3.66 ± 0.25%. For the same molecule, in series [5], the inhibition at 100 µM is 6.89 ± 1.5%.
In turn, `COc1cc(C)c(C(=O)Oc2cc(C)c(C(=O)OCC#N)c(O)c2C)c(O)c1C` [Compound 6g] displayed a melting point of 184 to 187 °C. The inhibition at 100 µM in series [1] was found to be 0.12 ± 0.1%. Moreover, the inhibition at 100 µM in series [2] is 12.1 ± 1.3%. In series [3], the inhibition at 100 µM was -27.7 ± 1%. In addition, the inhibition at 100 µM in series [4] was -8.61 ± 0.19%. For the same molecule, the inhibition at 100 µM in series [5] is -12.6 ± 2.88%.

(Values after paper PMC10222548, “Semisynthesis, Biological Evaluation and Molecular Docking Studies of Barbatic Acid Derivatives as Novel Diuretic Candidates” (Molecules, 2023).)
